Patent US20110165601A1, “ASSAY SYSTEM” (THE UNIVERSITY COURT OF THE UNIVERSITY GLASGOW, priority 2006, published 2011)

Columns and labels:
ryanodine receptor = target: T1, ryanodine receptor (Oryctolagus cuniculus, UniProt P30957); test: SR Ca2+ release assay (Ca2+ leak from permeabilised cell aggregates); type: cell-based, rabbit; details: after 40 mM caffeine, FIG. 2
T1 construct: The atria were removed and discarded whereas the right and left ventricle was kept for experiments; endogenous in cells; host or cells: isolated rabbit ventricular cardiomyocytes, beta-escin permeabilised, frozen and thawed
Description: Ca^2+ uptake is stimulated by addition of an aliquot of Ca^2+. SERCA inhibition is induced by thapsigargin (5 uM).
The cell aggregate preparation is defrosted in 9× volumes of S2 with the addition of 2-3 aliquots of 100 μM CaCl2. The preparation is then aliquoted into the high format wells (96 or 384 well). […] The slow progressive increase in Ca^2+ concentration within the bath reflects Ca^2+ loss from the SR both via the ryanodine receptor and via independent leak pathways. […] As with the assay system above, two options for measurements are possible (i) follow the timecourse of the Ca^2+ release profile in detail by measuring every 1-2 s for 10 mins (ii) measuring the Ca^2+ concentration at a set time (e.g. 10 mins) after initiation of the reaction. Compounds that stimulate the SR Ca^2+ leak will cause the increase of Ca^2+ concentration to occur faster than control (vehicle). Conversely compounds that inhibit the SR Ca^2+ leak will slow the increase of Ca^2+ concentration.

SR Ca2+ ATPase (SERCA) = target: T2, SR Ca2+ ATPase (SERCA) (Oryctolagus cuniculus, UniProt P20647); test: SR uptake assay in permeabilised cell preparations; type: cell-based, rabbit; details: FIG. 1C
T2 construct: The atria were removed and discarded whereas the right and left ventricle was kept for experiments; endogenous in cells; host or cells: isolated rabbit ventricular cardiomyocytes, beta-escin permeabilised, frozen and thawed
Description: As indicated above the figure, Ca^2+ was added to increase the [Ca^2+] within the aggregate to ˜1.5 μM. No Ca^2+ uptake occurs due to the absence of Mg^2+ (and therefore MgATP). Addition of Me starts the reaction. The initial increase of [Ca^2+] is caused by displacement of Ca^2+ from ATP.
Aliquots of cells are defrosted gradually with the addition of 9 volumes of S1 solution. This was followed by addition of CaCl2 to increase the free [Ca^2+] to ˜1.5 μM (˜100 μM total Ca^2+). The mixture can then be distributed into the 96 or high format arrays. Incubation of the preparation with the compound of interest can occur for 15-20 mins and the SR uptake reaction began by addition of 5.5 mM MgCl2 (with stirring). This provides the substrate (MgATP) to allow SR uptake of Ca^2+. There are two options for measurement: (i) follow the time course of the Ca^2+ uptake profile in detail by measuring every 1-2 s for up to 10 mins (ii) measuring the Ca^2+ concentration at a set time (e.g. 10 mins) after initiation of the reaction. […] These effects can be monitored in detail (option (i)—see FIG. 1 and description thereof for an example) or by simply measuring Fluo-3 fluorescence at one time point (option (ii)).

myocytes [1] = test: Trypan blue assay (access of dye into myocytes); type: cell-based, rabbit
Description: (§1) The following description illustrates two methods which were used to test permeabilisation of rabbit myocytes by a batch of beta-escin, and to compare two different commercial batches of saponin.
(§2) The haemocytometer method of cell counting was used to count the number of non-permeable myocytes before and after application of the permeabilising agent (either saponin or β-Escin). Freshly dissociated cardiac muscle cells were obtained in a solution of low calcium. These were filtered and transferred into two 13.5 ml test tubes. Each was centrifuged for approximately 12 seconds at 5 g and the supernatant was discarded. Approximately 4.5 ml of EGTA solution was used to re-suspend the pellet in each tube. The contents of both were combined to form the stock suspension.
Access of the vital dye Trypan blue (MW: 950 approx.) into myocytes was used to evaluate permeabilisation by Saponin (Calbiochem brand) or β-escin. Permeabilised myocytes were identified by positive staining (blue colour) of the cell contents. Cells with intact membranes excluded the dye and it was this population that was counted.
For each run utilising the trypan blue assay, eight 13.5 ml test tubes were obtained. Each was labelled control 1, control 2, 0.1, 1, 10, 100, 1000 or 10000.
The cell stock suspension was agitated to ensure uniform distribution of cells and exactly 1 ml was pipetted into each tube. These were then transferred to the fridge to prevent degradation of the cells. Each tube was put through the following protocol in turn. The required volume of permeabilising agent was added (see Table 2) and a stopclock was started.
Once the incubation time had elapsed the tube was centrifuged for approximately 12 seconds at 5 g and the supernatant was withdrawn. The pellet was re-suspended in 0.5 mls of EGTA solution and 0.5 mls of 0.5% Trypan blue (BDH Laboratory Supplies, Poole, England) in 5 mM EGTA, which had been previously gently heated to ensure that the dye was dissolved. The tube was agitated and cell density determined by hamocytometer counting.
The protocol was followed for all concentrations under investigation; for the two controls no permeabilising agent was added and thus no incubation step was required.
(§3) Graphs were plotted and non-linear logistic curves were fitted using least squares technique by the Microcal™ Origin™ package (version 5.0, Microcal Software Inc.). ED50 values and their associated errors were also estimated using this software. Analysis of variance (ANOVA) using Tukey's post-test comparison was used to verify significance between ED50 values (GraphPad InStat™, GraphPad Software, V2.05a).

cardiac myocytes = test: Permeabilisation of a sample of cardiac myocytes; type: cell-based; details: at 1 mg/ml
myocytes [2] = test: Ca2+-contraction assay (rod count by haemocytometer); type: cell-based, rabbit
Description: as §1, §2
Physiologically, myofilaments are activated by a rapid increase in the cytosolic Ca^2+ concentration from 0.1 μM to approximately 2 μM which occurs mainly due to Ca^2+ release from the SR (Levick, 2000). The Ca^2+-contraction assay used in this investigation relies upon the fact that cells with permeabilised membranes allow free access of Ca^2+ to the cytosol when exposed to high extracellular Ca^2+ concentrations. This activates the myofilaments of the cell causing it to contract into a ball. Non-permeabilised myocytes retain their characteristic rod shape. The effects of permeabilising agents on the cell population were quantified by counting the proportion of rod-shaped cells.
On each run utilising the Ca^2+-contraction assay, sixteen 13.5 ml test tubes were obtained. Eight of these were labelled “EGTA” whilst the remaining eight were labelled “CaEGTA”. Within both sets of eight, individual tubes were labelled control 1, control 2, 0.01, 0.1, 1, 10, 100 and 1000.
The cell stock suspension was agitated to ensure uniform distribution of cells and exactly 1 ml was pipetted into each tube labelled “EGTA”. These tubes were then transferred to the fridge to prevent degradation of the cells.
Each tube was put through the following protocol in turn. The required volume of permeabilising agent was added (see Table 2) and a stopclock was started. During the two minute incubation time, exactly 0.5 mls of the contents of the “EGTA” tube was withdrawn using a pipette and transferred to the corresponding “CaEGTA” tube.
Once the incubation time had elapsed the tubes were centrifuged for approximately 12 seconds at 5 g and the supernatant was withdrawn. The “EGTA” pellet was re-suspended in 0.5 mls of EGTA solution and the “CaEGTA” pellet in 0.5 mls of CeEGTA solution. Both tubes were agitated and the cell density determined by haemocytometer. The protocol was followed for all concentrations under investigation; for the two controls no permeabilising agent was added and thus no incubation step was required.
The effect of exposing myocytes to exceedingly high concentrations of permeabilising agent ([…]) was investigated for both β-Escin and saponin. The protocol followed was the same as the Ca^2+-contraction assay protocol (described above). 100 μl of the 100 mg/ml stock was added to the 1 ml suspension volume to achieve the required concentration (see Table 2). A control plus a low concentration of agent (1 μg/ml) were also studied to validate results.
The concentrations investigated were 1, 10, 100 and 1000 μg/ml for each saponin plus two controls. The experimental protocol followed was the same as for the Ca^2+-contraction assay method above.
as §3

T2 sequence (P20647 1-997 isoform P20647-2): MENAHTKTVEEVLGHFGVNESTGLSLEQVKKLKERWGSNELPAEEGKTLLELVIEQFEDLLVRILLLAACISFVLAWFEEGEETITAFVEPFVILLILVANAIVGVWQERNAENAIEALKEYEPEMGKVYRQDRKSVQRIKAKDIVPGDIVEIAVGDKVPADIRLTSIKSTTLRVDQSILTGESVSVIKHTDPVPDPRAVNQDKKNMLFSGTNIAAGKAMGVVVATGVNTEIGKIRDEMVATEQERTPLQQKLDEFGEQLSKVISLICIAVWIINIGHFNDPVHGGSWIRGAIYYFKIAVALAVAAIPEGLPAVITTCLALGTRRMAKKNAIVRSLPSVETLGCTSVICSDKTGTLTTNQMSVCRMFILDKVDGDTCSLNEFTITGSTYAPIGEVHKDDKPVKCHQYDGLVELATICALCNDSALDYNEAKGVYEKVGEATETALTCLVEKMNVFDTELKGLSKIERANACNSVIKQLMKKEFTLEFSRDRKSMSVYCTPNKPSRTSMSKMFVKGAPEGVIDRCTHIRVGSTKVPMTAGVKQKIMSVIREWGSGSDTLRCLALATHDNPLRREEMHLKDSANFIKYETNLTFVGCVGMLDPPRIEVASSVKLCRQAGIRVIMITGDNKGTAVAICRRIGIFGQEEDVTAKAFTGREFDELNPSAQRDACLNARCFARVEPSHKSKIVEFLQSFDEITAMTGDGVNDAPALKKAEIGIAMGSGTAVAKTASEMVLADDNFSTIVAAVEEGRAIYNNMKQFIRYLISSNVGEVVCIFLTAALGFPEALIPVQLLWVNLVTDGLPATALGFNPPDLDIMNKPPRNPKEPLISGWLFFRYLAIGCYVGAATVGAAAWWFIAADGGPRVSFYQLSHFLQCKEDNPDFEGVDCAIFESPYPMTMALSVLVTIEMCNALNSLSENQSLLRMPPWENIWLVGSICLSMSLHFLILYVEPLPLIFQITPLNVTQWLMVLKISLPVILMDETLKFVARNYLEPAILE

Q: With `N.N.N.N.N.N.N.N.N.N.N.N.N.N.[Cl-].[Cl-].[Cl-].[Cl-].[Cl-].[Cl-].[O-2].[O-2].[Ru+3].[Ru+3].[Ru+4]` [ruthenium red] as the compound, how does the “effect on caffeine-stimulated Ca2+ leak from SR” value (ryanodine receptor) read?
A: blocked

Q: Which “effect on SERCA” value (SR Ca2+ ATPase (SERCA)) does the source give for `C/C=C(/C)C(=O)O[C@H]1C(C)=C2[C@H]([C@@H]1OC(=O)CCCCCCC)[C@@](C)(OC(C)=O)C[C@H](OC(=O)CCC)[C@@]1(O)[C@H]2OC(=O)[C@@]1(C)O` [thapsigargin] here?
A: inhibition

Q: Which results are given for β-escin?
A: concentration from which trypan blue began to enter the myocytes (myocytes [1]): 1 to 10 µg/mL; mean rod count excluding dye (myocytes [1]; at 0.1 μg/ml): approximately 90%; mean rod count excluding dye (myocytes [1]; at 1 μg/ml): approximately 110%; decrease of mean rod count, of the control value (myocytes [1]; at 10 μg/ml): approximately 35%; proportion of control population permeable to trypan blue (myocytes [1]; at 100 μg/ml): Approximately 100%; proportion of control population permeable to trypan blue (myocytes [1]; at 1000 μg/ml): Approximately 100%; proportion of control population permeable to trypan blue (myocytes [1]; at 10000 μg/ml): Approximately 100%; minimum effective concentration (myocytes [1]; trypan blue assay): 100 µg/mL; proportion of cardiac myocytes permeabilised (cardiac myocytes): about 10%; concentration at which permeabilisation (decrease in rod count in 5 mM Ca2+ EGTA) began (myocytes [2]; Ca2+-contraction assay): 10 µg/mL; concentration range over which permeabilisation was produced (myocytes [2]; Ca2+-contraction assay): 1 to 10000 µg/mL; minimum effective concentration (myocytes [2]; Ca2+-contraction assay, 5 mM Ca2+ EGTA): 100 µg/mL; proportion of cell population hyperpermeable / permeabilised (myocytes [2]; at 100 μg/ml): Approximately 100%; proportion of cell population hyperpermeable / permeabilised (myocytes [2]; at 1000 μg/ml): Approximately 100%; proportion of cell population hyperpermeable / permeabilised (myocytes [2]; at 10000 μg/ml): Approximately 100%
